# According to PubChem BioAssay (NCI):
#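 Each compound was tested at five concentrations against cells in 96-well plates for 48 hours. GI50: concentration for 50% inhibition of growth. Definition used: TGI = concentration required for complete inhibition of growth.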
# Tests used:
# Experiment in all cases: NCI tumour cell line growth inhibition, 48 h
# OVCAR-3 ovarian = system: OVCAR-3 ovarian
# OVCAR-5 ovarian = system: OVCAR-5 ovarian
# SF-539 CNS = system: SF-539 CNS
# K-562 leukemia = system: K-562 leukemia
# PC-3 prostate = system: PC-3 prostate
# SR leukemia = system: SR leukemia
# DU-145 prostate = system: DU-145 prostate
# HOP-92 NSCLC = system: HOP-92 NSCLC
# OVCAR-4 ovarian = system: OVCAR-4 ovarian
Structure (SMILES),TGI (OVCAR-3 ovarian),TGI (OVCAR-5 ovarian),TGI (SF-539 CNS),TGI (K-562 leukemia),TGI (PC-3 prostate),TGI (SR leukemia),TGI (DU-145 prostate),TGI (HOP-92 NSCLC),TGI (OVCAR-4 ovarian),GI50 (OVCAR-3 ovarian),GI50 (OVCAR-5 ovarian),GI50 (PC-3 prostate),GI50 (DU-145 prostate),GI50 (HOP-92 NSCLC)
c1ccc([P+](c2ccccc2)(c2ccccc2)c2ccc([P+](c3ccccc3)(c3ccccc3)c3ccccc3)cc2)cc1,> 100 µM,> 100 µM,81.5 µM,> 100 µM,> 100 µM,> 100 µM,> 100 µM,,,,,,,
CCOC(=O)C1CCCCc2sc(N)c(C#N)c21 (configuration not stated),,> 100 µM,,> 100 µM,> 100 µM,> 100 µM,,> 100 µM,,,,,,
COC(=O)/C=C/c1ccc2c(c1)CC1(Cc3ccccc3C1)C2,> 100 µM,> 100 µM,> 100 µM,> 100 µM,> 100 µM,58.1 µM,,> 100 µM,> 100 µM,,,,,
CCCCCCCCCCCCCCCCOCC(Cl)COP(=O)(O)OP(=O)(O)OCC1OC(n2cnc3c(N)ncnc32)C(O)C1O (configuration not stated),> 100 µM,> 100 µM,> 100 µM,> 100 µM,96.8 µM,,,> 100 µM,> 100 µM,,,,,
COc1cc2cc(C(=O)N3CC(CCl)c4c3cc([N+](C)(C)Cc3ccc([N+](=O)[O-])n3C)c3ccccc43)[nH]c2c(OC)c1OC (configuration not stated),> 100 µM,> 100 µM,14.3 µM,> 100 µM,,2.29 µM,23.8 µM,6.26 µM,6.35 µM,,,,,
CC(C)(C)c1c(C(C)(C)C)c(=O)c1=O,> 100 µM,> 100 µM,> 100 µM,> 100 µM,> 100 µM,,> 100 µM,> 100 µM,> 100 µM,,,,,
CC(=O)CC1(C)OC(N)=C(C#N)C1(C#N)C#N (configuration not stated),,> 100 µM,> 100 µM,,> 100 µM,,> 100 µM,> 100 µM,,,,,,
C=C1CC(Cn2cc(Br)c(=O)[nH]c2=O)(c2ccc(-c3ccccc3)cc2)OC1=O (configuration not stated),2.98 µM,15.6 µM,3.92 µM,> 100 µM,3.31 µM,,4.59 µM,0.113 µM,4.64 µM,,,,,
C=CCOC(=O)CCCCCCCCCCCCCCCOC(=O)C1=C(CCC[C@@H](C)O[Si](C)(C)C(C)(C)C)NC(=O)N2[C@H](CC3(CC/C=C\[C@H](CC)O[Si](C(C)C)(C(C)C)C(C)C)OCCO3)CC[C@H]12,> 100 µM,> 100 µM,> 100 µM,,> 100 µM,,> 100 µM,90.2 µM,> 100 µM,,,,,
NS(=O)(=O)c1cc(S(N)(=O)=O)c(NC(=O)N(c2ccccc2)c2ccccc2)c(Cl)c1Cl,49.4 µM,> 100 µM,,81.4 µM,> 100 µM,43.1 µM,,27 µM,> 100 µM,,,,,
COc1cccc(CN(C(=O)/C=C\Sc2ccccc2)C(C)(C)C)c1,> 100 µM,> 100 µM,> 100 µM,,> 100 µM,,> 100 µM,70.8 µM,> 100 µM,,,,,
CC/C(Cl)=N\OC(=O)Nc1ccc(F)cc1F,31.9 µM,35.1 µM,23.5 µM,2.34 µM,33.3 µM,,32.2 µM,4.34 µM,34.8 µM,,,,,
C/C(=C\Cc1cc(O)ccc1O)CCc1c(C)cc(O)c(C=O)c1C,53.1 µM,,38.3 µM,> 100 µM,,> 100 µM,,35.3 µM,> 100 µM,,,,,
O=CNNC(=O)Nc1ccc(Cl)cc1,,> 100 µM,> 100 µM,> 100 µM,,> 100 µM,> 100 µM,76.8 µM,> 100 µM,,,,,
CCOC(=O)CCCn1cc(C(=O)OC)nn1,,,> 100 µM,,> 100 µM,,> 100 µM,> 100 µM,> 100 µM,,,,,
CC12CC(C/C1=N/O)C(C)(C)C2 (configuration not stated),> 100 µM,> 100 µM,> 100 µM,> 100 µM,> 100 µM,,> 100 µM,> 100 µM,> 100 µM,,,,,
CC(C)(C)c1ccc(-c2nnc(-c3cc(C#N)cc(-c4nnc(-c5ccc(C(C)(C)C)cc5)o4)c3)o2)cc1,> 100 µM,> 100 µM,,> 100 µM,> 100 µM,,> 100 µM,> 100 µM,> 100 µM,,,,,
CCCCCCOc1ccc(C(=N)N(CCCC)CCCC)c2ccccc12,2.98 µM,2.94 µM,,,3.05 µM,,2.86 µM,2.6 µM,,1.49 µM,1.53 µM,1.53 µM,1.49 µM,1.07 µM
Cc1ccc(S(=O)(=O)N/N=C2\C3CC4CC(C3)C2C4)cc1 (configuration not stated),> 100 µM,> 100 µM,> 100 µM,> 100 µM,> 100 µM,> 100 µM,,,> 100 µM,,,,,
O=[N+]([O-])c1ccc(NS(=O)(=O)C(F)(F)F)cc1,> 100 µM,> 100 µM,> 100 µM,,> 100 µM,,> 100 µM,> 100 µM,> 100 µM,,,,,
